Data published in patent US20250313559A1 (Bayer Aktiengesellschaft, priority 2024, published 2025).
Where two headings read alike, the source gives them in different places.

Experiments:
[1] = tested on: natriuretic peptide levels; conditions: ARTS-HF trial, phase 2; cited from earlier work
[2] = tested on: patients with heart failure and a left ventricular ejection fraction ≥40%
[3] = No SGLT2i Use at baseline, n = 2,610
[4] = SGLT2i Use at baseline, n = 393

## CCOc1ncc(C)c2c1[C@H](c1ccc(C#N)cc1OC)C(C(N)=O)=C(C)N2 [finerenone, (4S)-4-(4-cyano-2-methoxyphenyl)-5-ethoxy-2,8-dimethyl-1,4-dihydro-1,6-naphthyridine-3-carboxamide]
[1]
  treatment effects on natriuretic peptide levels: dose dependent
[2]; HFimpEF (history of LVEF<40%)
  Absolute risk reduction, primary outcome: 9.2 per 100 py
[2]; LVEF consistently 40% (no HFimpEF)
  Absolute risk reduction, primary outcome: 2.5 per 100 py
[2]; No SGLT2i Use at baseline
  All-cause death, HR (95% CI) finerenone vs placebo: 0.94 (0.82, 1.07)
  Renal composite endpoint, HR (95% CI) finerenone vs placebo: 1.43 (0.98, 2.08)
  Total worsening HF events, RR (95% CI) finerenone vs placebo: 0.83 (0.71, 0.97)
[2]; [3]
  Renal composite endpoint, Rate (per 100 py): 0.8 per 100 py
  Total worsening HF events, Rate (per 100 py): 13.0 per 100 py
[2]; SGLT2i Use at baseline
  All-cause death, HR (95% CI) finerenone vs placebo: 0.90 (0.64, 1.27)
[2]; [4]
  Renal composite endpoint, Rate (per 100 py): 1.3 per 100 py
  Total worsening HF events, Events: 194
  Total worsening HF events, Rate (per 100 py): 22.0 per 100 py
[2]; at 6 months
  Mean systolic blood pressure lower than in the placebo group: 3.4 mm Hg
[2]; bilirubin Tertile 2 0.5-0.6 mg/dL, finerenone N = 970
  All-cause death, event rate per 100 PY: 6.4 per 100 PY
[2]; bilirubin Tertile 3 ≥0.7 mg/dL, finerenone N = 1,009
  All-cause death, event rate per 100 PY: 6.6 per 100 PY
[2]; both, human, in vivo
  Hyperkalemia leading to Hospitalization - no.: 24
  Number of subjects with a treatment-emergent SAE: Acute kidney injury: 54
  Number of subjects with a treatment-emergent SAE: Anaemia: 34
  Number of subjects with a treatment-emergent SAE: Angina pectoris: 17
  Number of subjects with a treatment-emergent SAE: Angina unstable: 38
  Number of subjects with a treatment-emergent SAE: Atrial fibrillation: 77
  Number of subjects with a treatment-emergent SAE: Cardiac failure: 18
  Number of subjects with a treatment-emergent SAE: Cellulitis: 17
  Number of subjects with a treatment-emergent SAE: Chest pain: 23
  Number of subjects with a treatment-emergent SAE: Chronic obstructive pulmonary disease: 18
  Number of subjects with a treatment-emergent SAE: Fall: 15
  Number of subjects with a treatment-emergent SAE: Femur fracture: 15
  Number of subjects with a treatment-emergent SAE: Gastrointestinal haemorrhage: 17
  Number of subjects with a treatment-emergent SAE: Hyperkalemia: 19
  Number of subjects with a treatment-emergent SAE: Pneumonia: 87
  Number of subjects with a treatment-emergent SAE: Syncope: 25
  Number of subjects with treatment-emergent AE leading to treatment discontinuation: Asthenia: 5
  Number of subjects with treatment-emergent AE leading to treatment discontinuation: Diarrhoea: 4
  Number of subjects with treatment-emergent AE leading to treatment discontinuation: Dyspnoea: 3
  Number of subjects with treatment-emergent AE leading to treatment discontinuation: Hyperkalaemia: 12
  Number of subjects with treatment-emergent AE leading to treatment discontinuation: Hypotension: 3
  Number of subjects with treatment-emergent AE leading to treatment discontinuation: Nausea: 3
  Number of subjects with treatment-emergent AE leading to treatment discontinuation: Renal impairment: 5
  Proportion of patients experiencing 15% decline in eGFR: 20.6%
  Subjects with a treatment-emergent SAE (%): Acute kidney injury: 1.8%
  Subjects with a treatment-emergent SAE (%): Anaemia: 1.1%
  Subjects with a treatment-emergent SAE (%): Angina pectoris: 0.6%
  Subjects with a treatment-emergent SAE (%): Angina unstable: 1.3%
  Subjects with a treatment-emergent SAE (%): Atrial fibrillation: 2.6%
  Subjects with a treatment-emergent SAE (%): Cardiac failure: 0.6%
  Subjects with a treatment-emergent SAE (%): Cellulitis: 0.6%
  Subjects with a treatment-emergent SAE (%): Chest pain: 0.8%
  Subjects with a treatment-emergent SAE (%): Chronic obstructive pulmonary disease: 0.6%
  Subjects with a treatment-emergent SAE (%): Coronary artery disease: 0.7%
  Subjects with a treatment-emergent SAE (%): Fall: 0.5%
  Subjects with a treatment-emergent SAE (%): Femur fracture: 0.5%
  Subjects with a treatment-emergent SAE (%): Gastrointestinal haemorrhage: 0.6%
  Subjects with a treatment-emergent SAE (%): Hyperkalemia: 0.6%
  Subjects with a treatment-emergent SAE (%): Pneumonia: 2.9%
  Subjects with a treatment-emergent SAE (%): Syncope: 0.8%
  Subjects with treatment-emergent AE leading to treatment discontinuation (%): Asthenia: (0.2%)
  Subjects with treatment-emergent AE leading to treatment discontinuation (%): Diarrhoea: (0.1%)
  Subjects with treatment-emergent AE leading to treatment discontinuation (%): Dyspnoea: (0.1%)
  Subjects with treatment-emergent AE leading to treatment discontinuation (%): Hyperkalaemia: (0.4%)
  Subjects with treatment-emergent AE leading to treatment discontinuation (%): Hypotension: (0.1%)
  Subjects with treatment-emergent AE leading to treatment discontinuation (%): Nausea: (0.1%)
  Subjects with treatment-emergent AE leading to treatment discontinuation (%): Renal impairment: (0.2%)
  Systolic blood pressure <100 mm Hg - no.: 538
[2]; by one month, compared with placebo
  Systolic BP, mean difference: −2.8 mm Hg
[2]; early after randomization
  Change in bilirubin during follow-up: sustained reduction in bilirubin
[2]; finerenone group
  Change in KCCQ clinical summary score at 6, 9 and 12 mo (least squares mean change): +8.0 ± 0.3
  Death from any cause - %: (16.4%)
  First worsening heart failure event or death from cardiovascular causes - %: (20.8%)
  Improvement in NYHA class from baseline to 12 mo - %: (18.6%)
